Results on 3 compounds are retold here after article PMC12118337, “Development of a Peptide Inhibitor Targeting the C‐SH2 Domain of the SHP2 Phosphatase” (Chembiochem, 2025).

As usually defined, the IC50 is the concentration at which inhibition is half-maximal.

The target in one test is T1, full‐length SHP2 (Homo sapiens, UniProt Q06124).
T1 construct: 1–525) proteins were prepared; His-SUMO3 (pETM11-SUMO3 vector) (N, cleaved yes); made in house; host or cells: E. coli BL21(DE3)
T1 sequence (Q06124 1-525): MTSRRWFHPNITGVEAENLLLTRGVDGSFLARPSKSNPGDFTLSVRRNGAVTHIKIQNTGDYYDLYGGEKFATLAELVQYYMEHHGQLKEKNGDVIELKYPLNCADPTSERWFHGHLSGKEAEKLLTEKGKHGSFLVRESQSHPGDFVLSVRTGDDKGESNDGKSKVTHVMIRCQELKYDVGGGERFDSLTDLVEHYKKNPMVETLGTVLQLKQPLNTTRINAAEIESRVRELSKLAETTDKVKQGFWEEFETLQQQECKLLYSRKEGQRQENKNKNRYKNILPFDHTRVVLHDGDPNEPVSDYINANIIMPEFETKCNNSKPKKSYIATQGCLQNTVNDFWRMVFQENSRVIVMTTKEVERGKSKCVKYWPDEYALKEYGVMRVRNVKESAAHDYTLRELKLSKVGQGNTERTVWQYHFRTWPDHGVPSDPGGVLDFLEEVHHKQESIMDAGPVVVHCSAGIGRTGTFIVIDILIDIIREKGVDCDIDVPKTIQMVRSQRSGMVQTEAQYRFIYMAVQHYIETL
In words: DiFMUP phosphatase assay, peptide inhibition in the presence of ITIM-[dPEG4]2-ITSM activator. It is filed as biochemical. As to conditions: for inhibitory activity against SHP2, in words: DiFMUP, 0.5 nM FL SHP2 activated with 26 nM tandem peptide, compared to peptide 21. As to the method: 6. DiFMUP phosphatase assays
SHP2 dephosphorylation of the fluorogenic substrate 6,8-difluoro-4-methylumbiliferyl phosphate (DiFMUP) was measured to evaluate the effect of acetylated peptides on SHP2 activity. Final concentrations of 0.5 nM full-length SHP2, 200 µM DiFMUP (Invitrogen) and 26 nM bisphosphorylated tandem ITIM-[dPEG4]2-ITSM (CASLO ApS) were used, unless stated otherwise, per well in 96-well plates (OptiPlate-96 F Black; PerkinElmer). For peptide activation assays, each well contained 60 µL of reaction buffer (50 mM HEPES pH 7.6, 150 mM NaCl, 1 mM EDTA, 0.05% Tween 20, freshly added 5 mM DTT), 10 µL of SHP2 and 20 µL of the test peptide (0.096 nM – 51.2 µM final concentration). For peptide inhibition assays in the presence of a SHP2 activator, each well contained 40 µL of reaction buffer (50 mM HEPES pH 7.6, 150 mM NaCl, 1 mM EDTA, 0.05% Tween 20, freshly added 5 mM DTT), 10 µL of SHP2 and 40 µL of previously mixed bisphosphorylated tandem ITIM-[dPEG4]2-ITSM activator and test peptide (0.096 nM – 51.2 µM or 0.376 nM – 200 µM final concentration). To obtain the maximal activity, 10 µL of SHP2 and 20 µL of bisphosphorylated tandem ITIM-[dPEG4]2-ITSM activator was added to 60 µL of buffer. Samples were incubated for 20 minutes at room temperature and then 10 µL of DiFMUP was added to each sample, to give a final volume of 100 µL per well. For background subtraction, 10 µL of DiFMUP was added to 80 µL of buffer. The fluorescence was immediately measured on a Synergy H1 Microplate Reader (BioTek) with the excitation and emission monitored at 358 nm and 452 nm, respectively, over 30 minutes. Data were analysed in Excel 2016 by subtracting background values from emission values and calculating the slope of the emission profiles. Data were then further analysed in GraphPad Prism 6 by either: 1) plotting the slope against the peptide concentration and fitting the data to a variable slope model of non-linear regression; or 2) normalising the data to the maximal activity (SHP2 in the presence of ITIM-[dPEG4]2-ITSM; set to 100% activity) to obtain the % activity, plotting the % activity against the peptide concentration and fitting the data to a variable slope model of non-linear regression to obtain the IC50 values. Data are from two or three independent experiments, each performed in […]

The target in another test is T2, SHP2 C‐SH2 domain (Homo sapiens, UniProt Q06124).
T2 construct: SHP2 N-SH2 domain (1–105), C-SH2 domain (106–220), PTP domain (224–541) and; His6 (pETM22 vector) (N, cleaved yes); made in house; host or cells: E. coli BL21(DE3)
T2 sequence (Q06124 106-220): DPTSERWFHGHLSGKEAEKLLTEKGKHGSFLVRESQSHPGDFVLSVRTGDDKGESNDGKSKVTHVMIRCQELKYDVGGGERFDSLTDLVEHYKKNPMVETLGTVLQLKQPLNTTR
As to conditions: ITC, previously reported; read-out: previously reported ITC K D, C‐SH2; cited from earlier work.

In the next test the target is T3, SHP2 N‐SH2 domain (Homo sapiens, UniProt Q06124).
T3 construct: SHP2 N-SH2 domain (1–105), C-SH2 domain (106–220), PTP domain (224–541) and; His6 (pETM22 vector) (N, cleaved yes); made in house; host or cells: E. coli BL21(DE3)
T3 sequence (Q06124 1-105): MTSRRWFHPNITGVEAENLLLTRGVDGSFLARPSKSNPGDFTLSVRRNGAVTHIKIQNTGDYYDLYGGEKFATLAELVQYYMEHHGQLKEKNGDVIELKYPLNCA
As to conditions: ITC, previously reported; read-out: previously reported ITC K D, N‐SH2; cited from earlier work. A general note: In ITC the heat of successive injections is recorded.

Non-standard residues stand in square brackets, D forms with d. Residues, ends and D or L forms follow the SMILES beside them. F2Pmp = N[C@@H](Cc1ccc(C(F)(F)P(=O)(O)O)cc1)C(=O)O; Pmp = N[C@@H](Cc1ccc(CP(=O)(O)O)cc1)C(=O)O

Turning to `CC[C@H](C)[C@H](NC(=O)[C@@H](NC(=O)[C@H](C)NC(=O)[C@H](Cc1ccc(CP(=O)(O)O)cc1)NC(=O)[C@H](CCC(=O)O)NC(=O)[C@@H](NC(=O)[C@H](CCC(N)=O)NC(C)=O)[C@@H](C)O)[C@@H](C)O)C(=O)N[C@@H](CCCCN)C(=O)N[C@@H](Cc1c[nH]cn1)C(=O)N1CCC[C@H]1C(N)=O` [peptide 23] (Ac-QTE[Pmp]ATIKHP-NH2), the “IC50 ± SEM (DiFMUP activity assay)” value at full‐length SHP2 (0.5 nM full-length SHP2 activated with 26 nM bisphosphorylated ITIM-[dPEG4]2-ITSM, 200 µM DiFMUP, pH 7.6, 20 min pre-incubation at room temperature, two or three independent experiments in technical triplicates) is “No inhibition”. The “inhibitory activity against SHP2, in words” value at full‐length SHP2 was “loss of inhibitory activity”.
Take “PD‐1 ITSM: PD‐1 immunoreceptor tyrosine‐based switch motif phosphopeptide of the authors' earlier work (ref 11) (EQTEYATIVFP; phospho-Tyr5 (pTyr))”: the Kd in the test with SHP2 C‐SH2 domain was 13 nM; with SHP2 N‐SH2 domain it was 167 nM.
For the compound `CC[C@H](C)[C@H](NC(=O)[C@@H](NC(=O)[C@H](C)NC(=O)[C@H](Cc1ccc(C(F)(F)P(=O)(O)O)cc1)NC(=O)[C@H](CCC(=O)O)NC(=O)[C@@H](NC(=O)[C@H](CCC(N)=O)NC(C)=O)[C@@H](C)O)[C@@H](C)O)C(=O)N[C@@H](CCCCN)C(=O)N[C@@H](Cc1c[nH]cn1)C(=O)N1CCC[C@H]1C(N)=O` [peptide 22] (Ac-QTE[F2Pmp]ATIKHP-NH2), at full‐length SHP2, the IC50 is greater than 51200 nM and the “inhibitory activity against SHP2, in words” value is recorded as “loss of inhibitory activity”.
